From patent publication US20240376084A1, “INHIBITORS OF ALPHA-HEMOLYSIN OF STAPHYLOCOCCUS AUREUS” (Helmholtz-Zentrum Fur Infektionsforschung GmbH, priority 2021, published 2024)

Tests used:
[1] = molecular target: hemolysin alpha from Staphylococcus aureus (Staphylococcus aureus, UniProt P09616); assay: cell-based
[2] = molecular target: S. aureus Alpha hemolysin (Staphylococcus aureus, UniProt P09616); assay: cell-based; conditions: A549-LDH Assay activity
Sequence of S. aureus Alpha hemolysin (P09616 27-319 limits assumed): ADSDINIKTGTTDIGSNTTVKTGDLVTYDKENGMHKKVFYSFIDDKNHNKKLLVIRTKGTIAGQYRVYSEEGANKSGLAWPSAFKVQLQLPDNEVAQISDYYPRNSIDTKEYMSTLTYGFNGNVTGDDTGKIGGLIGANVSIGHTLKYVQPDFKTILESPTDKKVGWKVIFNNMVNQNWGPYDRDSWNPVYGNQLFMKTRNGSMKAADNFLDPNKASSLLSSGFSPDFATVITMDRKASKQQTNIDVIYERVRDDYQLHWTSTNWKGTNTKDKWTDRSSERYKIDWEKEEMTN

Sequence of hemolysin alpha from Staphylococcus aureus (P09616 27-319 limits assumed): as above

Compound | IC50 [1] | EC50 [2] | EC50 [1]
Cc1cc2[nH]c(=O)c(=O)[nH]c2cc1S(=O)(=O)Nc1cc(C)c(-c2cccc(N(C)C)c2)c(C)c1 [Compound 59, N-(3′-(dimethylamino)-2,6-dimethyl-[1,1′-biphenyl]-4-yl)-7-methyl-2,3-dioxo-1,2,3,4-tetrahydroquinoxaline-6-sulfonamide] | 30 to 100 nM | 100 to 1000 nM | –
CCCc1ccc(NS(=O)(=O)c2cc3[nH]c(=O)c(=O)[nH]c3cc2C)cc1 [Compound 49, 7-methyl-2,3-dioxo-N-(4-propylphenyl)-1,2,3,4-tetrahydroquinoxaline-6-sulfonamide] | < 30 nM | 30 to 100 nM | –
CCO/C=C/c1ccc(NS(=O)(=O)c2cc3[nH]c(=O)c(=O)[nH]c3cc2C)cc1Cl [Compound 293, N-[3-chloro-4-[(E)-2-ethoxyvinyl]phenyl]-7-methyl-2,3-dioxo-1,4-dihydroquinoxaline-6-sulfonamide] | – | 1000 to 6000 nM | 100 to 1000 nM
Cc1cc2ccc(-c3ccc(NS(=O)(=O)c4cc5[nH]c(=O)c(=O)[nH]c5cc4C)cc3Cl)cc2[nH]1 [Compound 349, N-[3-chloro-4-(2-methyl-1H-indol-6-yl)phenyl]-7-methyl-2,3-dioxo-1,4-dihydroquinoxaline-6-sulfonamide] | – | < 30 nM | < 30 nM
COc1cc2[nH]c(=O)c(=O)[nH]c2cc1S(=O)(=O)Nc1ccc(SC(F)(F)F)cc1 [Compound 399, 7-methoxy-2,3-dioxo-N-[4-(trifluoromethylsulfanyl)phenyl]-1,4-dihydroquinoxaline-6-sulfonamide] | – | 100 to 1000 nM | 1000 to 3500 nM
Cc1cc2[nH]c(=O)c(=O)[nH]c2cc1S(=O)(=O)Nc1ccc(OC(F)F)cc1 [Compound 394, N-[4-(difluoromethoxy)phenyl]-7-methyl-2,3-dioxo-1,4-dihydroquinoxaline-6-sulfonamide] | – | 30 to 100 nM | 100 to 1000 nM
[2H]C([2H])([2H])Oc1ccc(-c2ccc(NS(=O)(=O)c3cc4[nH]c(=O)c(=O)[nH]c4cc3C)cc2Cl)cc1 [Compound 267, N-[3-chloro-4-[4-(trideuteriomethoxy)phenyl]phenyl]-7-methyl-2,3-dioxo-1,4-dihydroquinoxaline-6-sulfonamide] | – | 30 to 100 nM | < 30 nM
Cc1cc2[nH]c(=O)c(=O)[nH]c2cc1S(=O)(=O)Nc1ccc2c(c1)CCC2 [Compound 79, N-(2,3-dihydro-1H-inden-5-yl)-7-methyl-2,3-dioxo-1,2,3,4-tetrahydroquinoxaline-6-sulfonamide] | 100 to 1000 nM | 30 to 100 nM | –
Cc1cc2[nH]c(=O)c(=O)[nH]c2cc1S(=O)(=O)Nc1cc(Cl)c(-c2cccc(Cl)c2)cn1 [Compound 210, N-(4-chloro-5-(3-chlorophenyl)pyridin-2-yl)-7-methyl-2,3-dioxo-1,2,3,4-tetrahydroquinoxaline-6-sulfonamide] | – | 100 to 1000 nM | 30 to 100 nM
Cc1cc2[nH]c(=O)c(=O)[nH]c2cc1S(=O)(=O)Nc1ccc(N2CCCC2)cc1 [Compound 137, 7-methyl-2,3-dioxo-N-(4-(pyrrolidin-1-yl)phenyl)-1,2,3,4-tetrahydroquinoxaline-6-sulfonamide] | 100 to 1000 nM | 30 to 100 nM | –
Cc1cc2[nH]c(=O)c(=O)[nH]c2cc1S(=O)(=O)Nc1ccc(-c2ccc3cc[nH]c3c2)c(Br)c1 [Compound 374, N-[3-bromo-4-(1H-indol-6-yl)phenyl]-7-methyl-2,3-dioxo-1,4-dihydroquinoxaline-6-sulfonamide] | – | < 30 nM | < 30 nM
CCCc1ccc(NS(=O)(=O)c2cc3[nH]c(=O)c(=O)[nH]c3cc2Cl)cc1 [Compound 55, 7-chloro-2,3-dioxo-N-(4-propylphenyl)-1,2,3,4-tetrahydroquinoxaline-6-sulfonamide] | 30 to 100 nM | 30 to 100 nM | –
CCc1cc2[nH]c(=O)c(=O)[nH]c2cc1S(=O)(=O)Nc1ccc(Br)c(Cl)c1 [Compound 149, N-(4-bromo-3-chlorophenyl)-7-ethyl-2,3-dioxo-1,2,3,4-tetrahydroquinoxaline-6-sulfonamide] | 100 to 1000 nM | 100 to 1000 nM | –
Cc1cc2[nH]c(=O)c(=O)[nH]c2cc1S(=O)(=O)Nc1ccc(-c2ccc(S(C)(=O)=O)cc2F)c(Cl)c1 [Compound 262, N-[3-chloro-4-(2-fluoro-4-methylsulfonyl-phenyl)phenyl]-7-methyl-2,3-dioxo-1,4-dihydroquinoxaline-6-sulfonamide] | – | 1000 to 6000 nM | 1000 to 3500 nM
Cc1cc(NS(=O)(=O)c2cc3[nH]c(=O)c(=O)[nH]c3cc2C)ccc1Br [Compound 171, N-(4-bromo-3-methylphenyl)-7-methyl-2,3-dioxo-1,2,3,4-tetrahydroquinoxaline-6-sulfonamide] | 100 to 1000 nM | 30 to 100 nM | –
Cc1cc2[nH]c(=O)c(=O)[nH]c2cc1S(=O)(=O)Nc1ccc(-c2ccc3nc[nH]c3c2)c(Cl)c1 [Compound 359, N-[4-(3H-benzimidazol-5-yl)-3-chloro-phenyl]-7-methyl-2,3-dioxo-1,4-dihydroquinoxaline-6-sulfonamide] | – | 30 to 100 nM | 100 to 1000 nM

Compound | IC50 [1] | EC50 [2] | EC50 [1]
CC(C)(C)c1ccc(NS(=O)(=O)c2cc3[nH]c(=O)c(=O)[nH]c3cc2Cl)cc1 [Compound 173, N-(4-(tert-butyl)phenyl)-7-chloro-2,3-dioxo-1,2,3,4-tetrahydroquinoxaline-6-sulfonamide] | 100 to 1000 nM | 30 to 100 nM | –
Cc1cc2[nH]c(=O)c(=O)[nH]c2cc1S(=O)(=O)Nc1ccc(-c2ccc3[nH]ncc3c2)c(Cl)c1 [Compound 273, N-[3-chloro-4-(1H-indazol-5-yl)phenyl]-7-methyl-2,3-dioxo-1,4-dihydroquinoxaline-6-sulfonamide] | – | 100 to 1000 nM | 30 to 100 nM
Cc1cc2[nH]c(=O)c(=O)[nH]c2cc1S(=O)(=O)Nc1ccc(-c2cccc(N(C)C)c2)c(Cl)c1 [Compound 4, N-(2-chloro-3′-(dimethylamino)-[1,1′-biphenyl]-4-yl)-7-methyl-2,3-dioxo-1,2,3,4-tetrahydroquinoxaline-6-sulfonamide] | < 30 nM | 30 to 100 nM | –
Cc1nc2ccc(-c3ccc(NS(=O)(=O)c4cc5[nH]c(=O)c(=O)[nH]c5cc4C)cc3Cl)cc2[nH]1 [Compound 361, N-[3-chloro-4-(2-methyl-3H-benzimidazol-5-yl)phenyl]-7-methyl-2,3-dioxo-1,4-dihydroquinoxaline-6-sulfonamide] | – | < 30 nM | 30 to 100 nM
Cc1cc2[nH]c(=O)c(=O)[nH]c2cc1S(=O)(=O)Nc1ccc(-c2ccc(N(C)C)cc2)c(Cl)c1 [Compound 288, N-[3-chloro-4-[4-(dimethylamino)phenyl]phenyl]-7-methyl-2,3-dioxo-1,4-dihydroquinoxaline-6-sulfonamide] | – | 1000 to 6000 nM | 100 to 1000 nM
Cc1cc2[nH]c(=O)c(=O)[nH]c2cc1S(=O)(=O)Nc1ccc(-c2ccccc2Cl)cc1 [Compound 108, N-(2′-chloro-[1,1′-biphenyl]-4-yl)-7-methyl-2,3-dioxo-1,2,3,4-tetrahydroquinoxaline-6-sulfonamide] | 100 to 1000 nM | 100 to 1000 nM | –
Cc1cc2[nH]c(=O)c(=O)[nH]c2cc1S(=O)(=O)Nc1ccc(-c2ccccc2C(F)(F)F)c(Cl)c1 [Compound 139, N-(2-chloro-2′-(trifluoromethyl)-[1,1′-biphenyl]-4-yl)-7-methyl-2,3-dioxo-1,2,3,4-tetrahydroquinoxaline-6-sulfonamide] | 100 to 1000 nM | 1000 to 6000 nM | –
Cc1cc2[nH]c(=O)c(=O)[nH]c2cc1S(=O)(=O)Nc1ccc(-n2cncn2)c(Cl)c1 [Compound 263, N-[3-chloro-4-(1,2,4-triazol-1-yl)phenyl]-7-methyl-2,3-dioxo-1,4-dihydroquinoxaline-6-sulfonamide] | – | 100 to 1000 nM | 1000 to 3500 nM
Cc1cc2[nH]c(=O)c(=O)[nH]c2cc1S(=O)(=O)Nc1cc(Cl)c(-c2ccc(F)c(Cl)c2)cn1 [Compound 211, N-(4-chloro-5-(3-chloro-4-fluorophenyl)pyridin-2-yl)-7-methyl-2,3-dioxo-1,2,3,4-tetrahydroquinoxaline-6-sulfonamide] | – | 100 to 1000 nM | 100 to 1000 nM
Cc1cc2[nH]c(=O)c(=O)[nH]c2cc1S(=O)(=O)Nc1ccc(-n2cncn2)cc1 [Compound 265, 7-methyl-2,3-dioxo-N-[4-(1,2,4-triazol-1-yl)phenyl]-1,4-dihydroquinoxaline-6-sulfonamide] | – | 1000 to 6000 nM | 1000 to 3500 nM
Cc1cc2[nH]c(=O)c(=O)[nH]c2cc1S(=O)(=O)Nc1ccc(-c2cccc(CN)c2)c(Cl)c1 [Compound 342, N-[4-[3-(aminomethyl)phenyl]-3-chloro-phenyl]-7-methyl-2,3-dioxo-1,4-dihydroquinoxaline-6-sulfonamide] | – | 100 to 1000 nM | 1000 to 3500 nM
Cc1cc2[nH]c(=O)c(=O)[nH]c2cc1S(=O)(=O)Nc1ccc(-c2cccc(N3CCN(C)CC3)c2)c(Cl)c1 [Compound 330, N-[3-chloro-4-[3-(4-methylpiperazin-1-yl)phenyl]phenyl]-7-methyl-2,3-dioxo-1,4-dihydroquinoxaline-6-sulfonamide] | – | 100 to 1000 nM | 100 to 1000 nM
Cc1nc2cc(-c3ccc(NS(=O)(=O)c4cc5[nH]c(=O)c(=O)[nH]c5cc4C)cc3Cl)ccc2o1 [Compound 272, N-[3-chloro-4-(2-methyl-1,3-benzoxazol-5-yl)phenyl]-7-methyl-2,3-dioxo-1,4-dihydroquinoxaline-6-sulfonamide] | – | < 30 nM | < 30 nM
O=c1[nH]c2cc(OCC(F)(F)F)c(S(=O)(=O)Nc3ccc(OC(F)(F)F)cc3)cc2[nH]c1=O [Compound 276, 2,3-dioxo-7-(2,2,2-trifluoroethoxy)-N-[4-(trifluoromethoxy)phenyl]-1,4-dihydroquinoxaline-6-sulfonamide] | – | < 30 nM | 30 to 100 nM
O=c1[nH]c2cc(Cl)c(S(=O)(=O)Nc3ccc(-c4ccc(F)cc4)c(Cl)c3)cc2[nH]c1=O [Compound 12, 7-chloro-N-(2-chloro-4′-fluoro-[1,1′-biphenyl]-4-yl)-2,3-dioxo-1,2,3,4-tetrahydroquinoxaline-6-sulfonamide] | < 30 nM | 100 to 1000 nM | –
